Source: patent publication EP1038864A1, “NOVEL METALLOPROTEINASE INHIBITORS” (FUJI YAKUHIN KOGYO KABUSHIKI KAISHA, priority 1997, dated 1999)

Columns and labels:
[1] = biological target: T1, human fibroblast collagenase (Homo sapiens, UniProt P03956); experiment: Assay for inhibition of collagenase (fluorescein-labeled bovine type I collagen substrate); format: biochemical; conditions: activated human fibroblast procollagenase, 35°C, 2 hours, pH 7.5; read-out: Inhibition of MMP-1
T1 sequence (P03956 100-469): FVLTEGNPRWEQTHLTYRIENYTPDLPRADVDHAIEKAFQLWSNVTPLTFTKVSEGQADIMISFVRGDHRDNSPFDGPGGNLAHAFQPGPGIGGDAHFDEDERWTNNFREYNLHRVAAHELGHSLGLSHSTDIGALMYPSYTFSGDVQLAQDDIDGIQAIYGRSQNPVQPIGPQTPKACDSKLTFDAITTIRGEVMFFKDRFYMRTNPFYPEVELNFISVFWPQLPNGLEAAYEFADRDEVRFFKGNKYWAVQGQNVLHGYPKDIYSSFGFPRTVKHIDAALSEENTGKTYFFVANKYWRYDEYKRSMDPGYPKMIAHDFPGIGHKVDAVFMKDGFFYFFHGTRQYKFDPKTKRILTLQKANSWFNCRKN

[2] = biological target: human fibroblast stromelysin (Homo sapiens, UniProt P08254); experiment: Assay for inhibition of stromelysin (fluorescein-labeled casein substrate); format: biochemical; conditions: plasmin-activated human fibroblast prostromelysin, 37°C, 2 hours, pH 7.8; read-out: Inhibition of MMP-3
Chain of human fibroblast stromelysin (P08254 100-477): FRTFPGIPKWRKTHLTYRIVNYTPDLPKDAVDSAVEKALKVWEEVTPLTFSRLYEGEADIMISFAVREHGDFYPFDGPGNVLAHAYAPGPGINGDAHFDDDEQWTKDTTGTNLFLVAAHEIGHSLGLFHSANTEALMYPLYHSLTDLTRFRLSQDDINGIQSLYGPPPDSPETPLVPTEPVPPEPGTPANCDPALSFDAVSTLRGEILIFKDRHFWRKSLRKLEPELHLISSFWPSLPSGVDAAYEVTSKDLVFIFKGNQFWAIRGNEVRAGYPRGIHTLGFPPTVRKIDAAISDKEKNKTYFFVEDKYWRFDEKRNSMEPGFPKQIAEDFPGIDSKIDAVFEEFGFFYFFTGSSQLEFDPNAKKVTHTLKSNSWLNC

TNF-α Convertase = TNF-α Convertase (Homo sapiens, UniProt P78536); experiment: Assay for inhibition of TNF-α production in LPS-stimulated, PMA-differentiated U937 cells
Chain of TNF-α Convertase (P78536 215-824): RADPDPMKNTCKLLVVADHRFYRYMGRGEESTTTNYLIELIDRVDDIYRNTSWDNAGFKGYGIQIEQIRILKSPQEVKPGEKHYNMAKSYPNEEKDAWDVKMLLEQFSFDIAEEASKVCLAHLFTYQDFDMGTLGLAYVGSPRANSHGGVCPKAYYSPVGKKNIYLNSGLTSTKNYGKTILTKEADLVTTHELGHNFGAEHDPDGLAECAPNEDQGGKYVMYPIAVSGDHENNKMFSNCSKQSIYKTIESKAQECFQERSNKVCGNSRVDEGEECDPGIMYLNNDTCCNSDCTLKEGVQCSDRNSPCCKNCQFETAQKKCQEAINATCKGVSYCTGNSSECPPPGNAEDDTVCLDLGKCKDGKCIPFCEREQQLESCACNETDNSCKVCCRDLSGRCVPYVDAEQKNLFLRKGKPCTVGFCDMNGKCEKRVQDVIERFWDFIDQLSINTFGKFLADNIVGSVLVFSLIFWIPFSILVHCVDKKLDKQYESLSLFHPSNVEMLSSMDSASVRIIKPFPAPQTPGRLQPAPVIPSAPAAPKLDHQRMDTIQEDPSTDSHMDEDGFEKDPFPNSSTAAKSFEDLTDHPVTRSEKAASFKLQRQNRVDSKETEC

[3] = Assay for Oral Absorption in Rat (plasma level by MMP-3 inhibition bioassay); conditions: rat, po, 100 mg/kg; for AUC: male, Lewis
Protocol: Each compound of the present invention was dissolved in distilled water for injection and orally administered to rats (Lewis strain line, male, body weight: about 200 g) at a dose of 100mg/kg. From 30 minutes to 4 hours after the administration, a series of blood chronologically collected from rat fundus oculi were centrifuged (3000rpm for 10 minutes at 4°C) to give plasma samples. Each plasma sample (200 µl) was filtered through an ultrafiltration membrane by centrifugation at 1500 x G for 3 minutes using a micropartition UF unit (Centrifree-MPS-3: 30,000 MW cut-off, Amicon Corp., Beverly, MA). […] The reaction was stopped by adding 900 µl of 3% aqueous acetic acid to the reaction mixture. The fluorescence of the resulting solution was read using an excitation wavelength of 325 nm and an emission wavelength of 393 nm. The concentration of each test compound in rat plasma samples was calculated using a standard curve which was prepared based on a variety of doses.

IC50 [1] | IC50 [2] | IC50 (TNF-α Convertase) | AUC [3] | Compound | AUC at 4 h [3]
0.015 µM | 0.042 µM | 0.46 µM | 3380 ng·h/mL | CNC(=O)C(CCCN)NC(=O)C(CC(C)C)C(CCCc1ccc(NC(=N)N)cc1)C(=O)NO [Compound No. 46, N^a-[4-(Hydroxyamino)-2(R)-isobutyl-3(RS)-[3-(4'-guanidinophenyl)propyl]succinyl]-L-ornithine-N-methylamide · 2 acetate] | 
 | 0.018 µM | 1.01 µM | 3130 ng·h/mL | CNC(=O)C(Cc1ccc(CNC(C)=N)cc1)NC(=O)C(CC(C)C)C(C)C(=O)NO (single isomer, unassigned) [Compound No. 41, N^a-[4-(Hydroxyamino)-2(R)-isobutyl-3(R or S)-methylsuccinyl]-4'-acetimidoyliminomethyl-L-phenylalanine N-methylamide · 1 acetate] | 

Compound | IC50 [1] | IC50 [2] | IC50 (TNF-α Convertase) | AUC [3] | AUC at 4 h [3]
CNC(=O)C(CCCCNC(C)=N)NC(=O)C(CC(C)C)C(C)C(=O)NO [Compound No. 22, N^a-[4-(Hydroxyamino)-2(R)-isobutyl-3(RS)-methylsuccinyl]-N^e-acetimidoyl-L-lysine N-methylamide · 1 acetate] |  |  | 2.08 µM |  | 9130 ng·h/mL
